“And” between values parts separate entries of the source, which are not always exact repeats. Identical values can stand only once.

The experiment deals with T1, FPRL-1 (Homo sapiens, UniProt P25090).
T1 construct: expressed in transfected cells
T1 sequence (P25090 1-351): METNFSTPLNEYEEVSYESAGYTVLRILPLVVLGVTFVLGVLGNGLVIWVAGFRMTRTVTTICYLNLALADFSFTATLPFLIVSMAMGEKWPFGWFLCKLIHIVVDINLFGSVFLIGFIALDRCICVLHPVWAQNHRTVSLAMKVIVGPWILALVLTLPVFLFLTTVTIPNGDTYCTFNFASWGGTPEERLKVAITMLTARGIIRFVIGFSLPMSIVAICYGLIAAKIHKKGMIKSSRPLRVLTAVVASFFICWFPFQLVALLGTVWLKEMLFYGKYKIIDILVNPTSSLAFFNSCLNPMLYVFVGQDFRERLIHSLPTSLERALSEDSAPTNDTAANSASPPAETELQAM
As to the kind of experiment: Compound-induced calcium activity on FLIPR Tetra in CHO-Ga16 cells stably expressing FPRL1. Conditions: for EC50: compounds tested at 0.61 to 10,000 nM; for FPRL-1 Ga16-CHO (Rel. eff.): relative efficacy. The experiment is classed as cell-based. The procedure: CHO-Ga16 cells stably expressing FPRL1 were cultured in (F12, 10% FBS, 1% PSA, 400 μg/ml geneticin and 50 μg/ml hygromycin) and HEK-Gqi5 cells stable expressing FPR1 were cultured in (DMEM high glucose, 10% FBS, 1% PSA, 400 μg/ml geneticin and 50 μg/ml hygromycin). In general, the day before the experiment, 18,000 cells/well were placed in a 384-well clear bottom poly-d-lysine coated plate. The following day the screening compound-induced calcium activity was assayed on the FLIPR^Tetra. The drug plates were prepared in 384-well microplates using the EP3 and the MultiPROBE robotic liquid handling systems. Compounds were tested at concentrations ranging from 0.61 to 10,000 nM. Results are expressed as EC50 (nM) and efficacy values.

`O=C(Nc1ccc(Br)cc1F)N[C@@H](Cc1ccccc1)C(=O)O` [Compound 1, (2S)-2-({[(4-Bromo-2-fluorophenyl)amino]carbonyl}amino)-3-phenylpropanoic acid]: the EC50 worked out at 51 nM and the “FPRL-1 Ga16-CHO (Rel. eff.)” value is given as “(0.88)”.
The matching figures for `Cc1cc(Br)ccc1NC(=O)N[C@@H](Cc1ccccc1)C(=O)O` [Compound 2, (2S)-2-({[(4-Bromo-2-methylphenyl)amino]carbonyl}amino)-3-phenylpropanoic acid]: 1550 nM and “(1.0)”.
In the case of `O=C(Nc1c(F)cc(Br)cc1F)N[C@@H](Cc1ccccc1)C(=O)O` [Compound 3, (2S)-2-({[(4-Bromo-2,6-difluorophenyl)amino]carbonyl}amino)-3-phenylpropanoic acid], the EC50 stood at 563 nM and the “FPRL-1 Ga16-CHO (Rel. eff.)” value is listed as “(1.0)”.
Regarding `Cc1cc(Br)cc(C)c1NC(=O)N[C@@H](Cc1ccccc1)C(=O)O` [Compound 4, (2S)-2-({[(4-Bromo-2,6-dimethylphenyl)amino]carbonyl}amino)-3-phenylpropanoic acid], the concentration for a half-maximal effect (EC50) was 2400 nM and the “FPRL-1 Ga16-CHO (Rel. eff.)” value is listed as “(0.82)”.
Turning to `O=C(Nc1ccc(Cl)cc1Cl)N[C@@H](Cc1ccccc1)C(=O)O` [Compound 5, (2S)-2-({[(2,4-Dichlorophenyl)amino]carbonyl}amino)-3-phenylpropanoic acid], the half-maximal effective concentration (EC50) was determined as 1150 nM and the “FPRL-1 Ga16-CHO (Rel. eff.)” value is recorded as “(1.0)”.
The matching figures for `CC[C@H](C)[C@H](NC(=O)Nc1ccc(Br)cc1F)C(=O)O` [Compound 7, (2S,3S)-2-({[(4-Bromo-2-fluorophenyl)amino]carbonyl}amino)-3-methylpentanoic acid]: 8 nM and “(0.89)”.
The matching figures for `O=C(Nc1ccc(Br)cc1F)N[C@H](C(=O)O)c1ccccc1` [Compound 8, (2S)-({[(4-Bromo-2-fluorophenyl)amino]carbonyl}amino)(phenyl)acetic acid]: 88 nM and “(1.02)”.
For `O=C(Nc1ccc(Br)c2ccccc12)N[C@@H](Cc1ccccc1)C(=O)O` [Compound 10, (2S)-2-({[(4-Bromo-1-naphthyl)amino]carbonyl}amino)-3-phenylpropanoic acid] the same measures were 5100 nM and “(0.53)”.
In the case of `CC(C)C[C@H](NC(=O)Nc1ccc(SC(F)(F)F)cc1)C(=O)O` [Compound 11, (2S)-4-Methyl-2-{[({4-[(trifluoromethyl)thio]phenyl}amino)carbonyl]amino}pentanoic acid], the EC50 stood at 2380 nM and the “FPRL-1 Ga16-CHO (Rel. eff.)” value is recorded as “(0.64)”.
The matching figures for `CC(C)C[C@H](NC(=O)Nc1ccc(C(F)(F)F)cc1)C(=O)O` [Compound 12, (2S)-4-Methyl-2-[({[4-(trifluoromethyl)phenyl]amino}carbonyl)amino]pentanoic acid]: 29 nM and “(0.94)”.
The matching figures for `CSCC[C@H](NC(=O)Nc1ccc(Br)cc1)C(=O)O` [Compound 14, (2S)-2-({[(4-Bromophenyl)amino]carbonyl}amino)-4-(methylthio)butanoic acid]: 75 nM and “(1.00)”.
For `CSc1ccc(NC(=O)N[C@@H](Cc2ccccc2)C(=O)O)cc1` [Compound 15, (2S)-2-[({[4-(Methylthio)phenyl]amino}carbonyl)amino]-3-phenylpropanoic acid] the same measures were 77 nM and “(0.87)”.
Consider `O=C(Nc1ccc(Br)cc1)NC(Cc1ccccn1)C(=O)O` (stereo not shown) [Compound 16, 2-({[(4-Bromophenyl)amino]carbonyl}amino)-3-pyridin-2-ylpropanoic acid], for which the concentration giving a half-maximal response (EC50) stood at 488 nM and the “FPRL-1 Ga16-CHO (Rel. eff.)” value is on record as “(1.0)”.
The matching figures for `O=C(Nc1ccc(Br)cc1F)NC(Cc1ccccn1)C(=O)O` (stereo not shown) [Compound 17, 2-({[(4-Bromo-2-fluorophenyl)amino]carbonyl}amino)-3-pyridin-2-ylpropanoic acid]: 713 nM and “(1.0)”.
The matching figures for `O=C(Nc1ccc(Br)cc1F)NC(Cc1c[nH]c2ccccc12)C(=O)O` (stereo not shown) [Compound 19, 2-({[(4-Bromo-2-fluorophenyl)amino]carbonyl}amino)-3-(1H-indol-3-yl)propanoic acid]: 120 nM and “(1.04)”.
In the case of `O=C(Nc1ncc2cc(Br)ccc2n1)NC(Cc1ccccc1)C(=O)O` (stereo not shown) [Compound 20, 2-({[(6-Bromoquinazolin-2-yl)amino]carbonyl}amino)-3-phenylpropanoic acid], the “FPRL-1 Ga16-CHO (Rel. eff.)” value is reported as “(0.25)”.
On to `CSCCC(NC(=O)Nc1ccc(Br)cc1)C(=O)O` (stereo not shown) [Compound 21, 2-({[(4-Bromophenyl)amino]carbonyl}amino)-4-(methylthio)butanoic acid], for which the EC50 was found to be 93 nM and the “FPRL-1 Ga16-CHO (Rel. eff.)” value was “(0.94)”.
Consider `O=C(Nc1ccc(C(F)(F)F)cc1)NC(Cc1ccccc1)C(=O)O` (stereo not shown) [Compound 22, 3-Phenyl-2-({[4-(trifluoromethyl)phenyl]carbamoyl}amino)propanoic acid], for which the EC50 came to 91 nM and the “FPRL-1 Ga16-CHO (Rel. eff.)” value is given as “(1.05)”.
For `CSc1ccc(NC(=O)NC(Cc2ccccc2)C(=O)O)cc1` (stereo not shown) [Compound 23, 2-[({[4-(Methylthio)phenyl]amino}carbonyl)amino]-3-phenylpropanoic acid] the same measures were 169 nM and “(0.76)”.
For `CC(C)CC(C)(NC(=O)Nc1ccc(Br)cc1)C(=O)O` (stereo not shown) [Compound 24, 2-({[(4-Bromophenyl)amino]carbonyl}amino)-2,4-dimethylpentanoic acid] the same measures were 16 nM and “(0.95)”.
The matching figures for `CCC(CC)(NC(=O)Nc1ccc(Br)cc1)C(=O)O` [Compound 25, 2-({[(4-Bromophenyl)amino]carbonyl}amino)-2-ethylbutanoic acid]: 24 nM and “(1.03)”.
For the compound `NC(=O)[C@H](Cc1ccccc1)NC(=O)Nc1ccc(Br)cc1` [Compound 26, (2S)-2-({[(4-Bromophenyl)amino]carbonyl}amino)-3-phenylpropanamide], the 50% effective concentration (EC50) is 47 nM and 29 nM.
As to `CC(C)C[C@H](NC(=O)Nc1ccc(Br)cc1F)C(N)=O` [Compound 27, (2S)-2-({[(4-Bromo-2-fluorophenyl)amino]carbonyl}amino)-4-methylpentanamide], the concentration giving a half-maximal response (EC50) was found to be 120 nM and the “FPRL-1 Ga16-CHO (Rel. eff.)” value is on record as “(1.13)”.
The matching figures for `CC(C)C[C@H](NC(=O)Nc1ccc(Br)cc1)C(N)=O` [Compound 28, (2S)-2-({[(4-Bromophenyl)amino]carbonyl}amino)-4-methylpentanamide]: 48 nM and “(0.91)”.
In the case of `CC[C@H](C)[C@H](NC(=O)Nc1ccc(Br)cc1F)C(N)=O` [Compound 29, (2S,3S)-2-({[(4-Bromo-2-fluorophenyl)amino]carbonyl}amino)-3-methylpentanamide], the EC50 is 241 nM and the “FPRL-1 Ga16-CHO (Rel. eff.)” value is given as “(0.78)”.
The matching figures for `CCC[C@H](NC(=O)Nc1ccc(Br)cc1F)C(N)=O` [Compound 30, (2S)-2-({[(4-Bromo-2-fluorophenyl)amino]carbonyl}amino)pentanamide]: 56 nM and “(1.07)”.
The matching figures for `CCC[C@H](NC(=O)Nc1ccc(Br)cc1)C(N)=O` [Compound 31, (2S)-2-{[(4-Bromophenyl)carbamoyl]amino} pentanamide]: 109 nM and “(0.97)”.
